# Starred links: 1 amine or outer side, 2 acyl side, 3 side chain; linkers in the order of their positions; H or OH if unused. Positions of bridges follow the written chain, without caps; N, C: chain ends. Non-standard residues stand in square brackets, D forms with d. Residues, ends and D or L forms follow the SMILES beside them. *: point of attachment. Trp(7-(3-AcNH-Ph)) = CC(=O)Nc1cccc(-c2cccc3c(C[C@H](N)C(=O)O)c[nH]c23)c1; X36 = C[N+]1(CCCc2cn(-c3ccc(C[C@H](N[*:1])C(=O)[*:2])cc3)nn2)CCOCC1; X13 = C[N+]1(Cc2cn(-c3ccc(C[C@H](N[*:1])C(=O)[*:2])cc3)nn2)CCOCC1; Trp(7-Me) = Cc1cccc2c(C[C@H](N)C(=O)O)c[nH]c12; dLys(Me3) = C[N+](C)(C)CCCC[C@@H](N)C(=O)O; 2Nal = N[C@@H](Cc1ccc2ccccc2c1)C(=O)O; 3Pal = N[C@@H](Cc1cccnc1)C(=O)O; Pen = CC(C)(S)[C@H](N)C(=O)O; X8 = C[N+](C)(C)CCCCCCCC*; Thp = NC1(C(=O)O)CCOCC1; X3 = C[N+](C)(C)CCCCC*; Sar = CNCC(=O)O
# Test: Exposed Polar Surface Area (EPSA)
# Assay type: physicochemical
# Conditions: SFC on Chirex 3014 column; sample 1 mM DMSO stock; read-out: EPSA
# Summary of the method: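 SFC retention on a Chirex 3014 (S-valine/(R)-1-(α-naphthyl)ethylamine) column at 35 °C, 4 mL/min, 14 MPa outlet, 5–60% methanol/20 mM ammonium formate gradient in CO2. Retention times converted to EPSA (Å²) via linear calibration with 8 standards; samples from 1 mM DMSO stock, run in duplicate.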
row,Compound,EPSA [A^2]
1,"CC(=O)NCCCC[C@@H]1NC(=O)[C@H](Cc2c[nH]c3c(C)cccc23)NC(=O)[C@H]([C@@H](C)O)NC(=O)[C@H](CC(N)=O)NC(=O)[C@@H](NC(=O)[C@@H](CCCC[N+](C)(C)C)NC(C)=O)C(C)(C)SSC(C)(C)[C@@H](C(=O)N[C@@H](Cc2ccc(OCCCCC[N+](C)(C)C)cc2)C(=O)N[C@@H](Cc2ccc3ccccc3c2)C(=O)NC2(C(=O)N[C@@H](CCCCNC(C)=O)C(=O)N[C@@H](CC(N)=O)C(=O)N[C@@H](Cc3cccnc3)C(=O)N(C)CC(N)=O)CCOCC2)NC1=O [compound 450, MeCO-k(Me)3-Pen(3)-N-T-7MeW-K(Ac)-Pen(3)-TMAPF-2Nal-THP-K(Ac)-N-3Pya-Sar-CONH2] (Ac-[dLys(Me3)][Pen]NT[Trp(7-Me)]K(Ac)[Pen]Y(X3)[2Nal][Thp]K(Ac)N[3Pal][Sar]-NH2; disulfide 2-7)",165
2,"CC(=O)NCCCC[C@@H]1NC(=O)[C@H](Cc2c[nH]c3c(-c4cccc(NC(C)=O)c4)cccc23)NC(=O)[C@H]([C@@H](C)O)NC(=O)[C@H](CC(N)=O)NC(=O)[C@@H](NC(C)=O)C(C)(C)SSC(C)(C)[C@@H](C(=O)N[C@@H](Cc2ccc(OCCCCC[N+](C)(C)C)cc2)C(=O)N[C@@H](Cc2ccc3ccccc3c2)C(=O)NC2(C(=O)N[C@@H](CCCCNC(C)=O)C(=O)N[C@@H](CC(N)=O)C(=O)N[C@@H](Cc3cccnc3)C(=O)N(C)CC(N)=O)CCOCC2)NC1=O [compound 452, MeCO-Pen(3)-N-T-7(3NAcPh)W-K(Ac)-Pen(3)-TMAPF-2Nal-THP-K(Ac)-N-3Pya-Sar-CONH2] (Ac-[Pen]NT[Trp(7-(3-AcNH-Ph))]K(Ac)[Pen]Y(X3)[2Nal][Thp]K(Ac)N[3Pal][Sar]-NH2; disulfide 1-6)",163
3,CC(=O)NCCCC[C@@H]1NC(=O)[C@H](Cc2c[nH]c3c(C)cccc23)NC(=O)[C@H]([C@@H](C)O)NC(=O)[C@H](CC(N)=O)NC(=O)[C@@H](NC(C)=O)C(C)(C)SSC(C)(C)[C@@H](C(=O)N[C@@H](Cc2ccc(-n3cc(CCC[N+]4(C)CCOCC4)nn3)cc2)C(=O)N[C@@H](Cc2ccc3ccccc3c2)C(=O)NC2(C(=O)N[C@@H](CCC(=O)O)C(=O)N[C@@H](CC(N)=O)C(=O)N[C@@H](Cc3cccnc3)C(=O)N(C)CC(N)=O)CCOCC2)NC1=O [compound 453] (Ac-[Pen]NT[Trp(7-Me)]K(Ac)[Pen][X36][2Nal][Thp]EN[3Pal][Sar]-NH2; disulfide 1-6),173
4,CC(=O)NCCCC[C@@H]1NC(=O)[C@H](Cc2c[nH]c3c(C)cccc23)NC(=O)[C@H]([C@@H](C)O)NC(=O)[C@H](CC(N)=O)NC(=O)[C@@H](NC(C)=O)C(C)(C)SSC(C)(C)[C@@H](C(=O)N[C@@H](Cc2ccc(OCCCCCCCC[N+](C)(C)C)cc2)C(=O)N[C@@H](Cc2ccc3ccccc3c2)C(=O)NC2(C(=O)N[C@@H](CCC(=O)O)C(=O)N[C@@H](CC(N)=O)C(=O)N[C@@H](Cc3cccnc3)C(=O)N(C)CC(N)=O)CCOCC2)NC1=O [compound 457] (Ac-[Pen]NT[Trp(7-Me)]K(Ac)[Pen]Y(X8)[2Nal][Thp]EN[3Pal][Sar]-NH2; disulfide 1-6 (inferred)),163
5,CC(=O)NCCCC[C@H](NC(=O)[C@H](CCC(=O)O)NC(=O)C1(NC(=O)[C@H](Cc2ccc3ccccc3c2)NC(=O)[C@H](Cc2ccc(-n3cc(C[N+]4(C)CCOCC4)nn3)cc2)NC(=O)[C@H]2NC(=O)[C@H](CCCCNC(C)=O)NC(=O)[C@H](Cc3c[nH]c4c(C)cccc34)NC(=O)[C@H]([C@@H](C)O)NC(=O)[C@H](CC(N)=O)NC(=O)[C@@H](NC(C)=O)C(C)(C)SSC2(C)C)CCOCC1)C(=O)N[C@@H](Cc1cccnc1)C(=O)N(C)CC(N)=O [compound 460] (Ac-[Pen]NT[Trp(7-Me)]K(Ac)[Pen][X13][2Nal][Thp]EK(Ac)[3Pal][Sar]-NH2; disulfide 1-6),167

# Source: patent US20260022143A1, “Cyclic Peptide Inhibitors of IL-23” (JANSSEN PHARMACEUTICA NV, priority 2022, published 2026)
